Measurements from US8287918B2, “Medicament for treating lung cancer” (Dainippon Sumitomo Pharma Co., Ltd., priority 2001, dated 2012).
Where a name gives a salt, the structure may show the parent alone. Read-outs that look alike come from different tables or passages of the source.

Experiments:
tumor cells = conditions: Cancer Chemothr. Pharmacol., 30, 51-57 (1992); cited from earlier work
[1] = humans, cited from earlier work
[2] = tested on: Human small cell lung cancer LX-1 cell strain; test: Antitumor activity against subcutaneously transplanted LX-1 tumor in nude mice; type: in vivo; conditions: single agent at maximum tolerated dose (amrubicin hydrochloride 25 mg/kg; cisplatin 10 mg/kg), single intravenous administration, measured for 23 days
Description: Human small cell lung cancer LX-1 cell strain was subcutaneously transplanted to nude mice (80 animals) at 5 weeks of age. After 15 days from the tumor transplantation, 36 animals having a tumor volume of about 200 to 500 mm^3 were allotted to 6 groups consisting of 6 animals per group. On the same day, the animals received intravenous administration, respectively, of physiological saline for “vehicle group”, the maximum tolerated dose of amrubicin hydrochloride (25 mg/kg) for “an amrubicin hydrochloride alone administration group”, the maximum tolerated dose of cisplatin (10 mg/kg) for “cisplatin alone administration group”, 0.5 times of the maximum tolerated dose of amrubicin hydrochloride and 0.5 times of the maximum tolerated dose of cisplatin for “combined administration group (0.5×MTD)”, 0.8 times of the maximum tolerated dose of amrubicin hydrochloride and 0.8 times of the maximum tolerated dose of cisplatin for “combined administration group (0.8×MTD)”, the maximum tolerated dose of amrubicin hydrochloride and the maximum tolerated dose of cisplatin for “combined administration group (1×MTD)”. Thereafter, tumor volume and body weight of the mice were measured for 23 days. […]
The minimum T/C % was calculated as follows: […]

[3] = rabbit chronic experimental model; Invest. New Drug, 15, 219-225 (1997); cited from earlier work

CC(O)[C@]1(N)Cc2c(O)c3c(c(O)c2[C@@H](O[C@H]2C[C@H](O)[C@H](O)CO2)C1)C(=O)c1ccccc1C3=O (stereo partly shown) [amrubicinol]
inhibitory activity against growth of tumor cells compared with amrubicin (tumor cells): considerably stronger

CC(=O)[C@]1(N)Cc2c(O)c3c(c(O)c2[C@@H](OC2CC(O)C(O)CO2)C1)C(=O)c1ccccc1C3=O (stereo partly shown) [amrubicin hydrochloride]
maximum tolerated dose ([1]; administration in 3 continuous days): 50 mg/m^2 per day
maximum tolerated dose ([1]; once a day single dose): 130 mg/m^2
Minimum T/C % [2]: 55%

CC(=O)[C@]1(N)Cc2c(O)c3c(c(O)c2[C@@H](O[C@H]2C[C@H](O)[C@H](O)CO2)C1)C(=O)c1ccccc1C3=O [amrubicin, (+)-(7S,9S)-9-acetyl-9-amino-7-[(2-deoxy-β-D-erythro-pentopyranosyl)oxy]-7,8,9,10-tetrahydro-6,11-dihydroxy-5,12-naphthacenedione]
cardiac toxicity compared with doxorubicin [3]: far weaker than doxorubicin

N.N.[Cl][Pt][Cl] [cisplatin, cis-diammin dichloroplatinum]
maximum tolerated dose [1]: 90 mg/m^2
Minimum T/C % [2]: 68%
